From ChEMBL document CHEMBL1201862, “PubChem BioAssay data set” (2004)
Active and inactive are the calls of the source.

Experiments:
[1] = molecular target: Type-1 angiotensin II receptor (Homo sapiens, UniProt P30556); assay: agonist activity at AGTR1 – cell-based, uHTS hits, selectivity assay for APJ receptor agonist project, dose response (AID 488865); format: functional;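 note: beta-arrestin recruitment to AT1 measured by enzyme fragment complementation luminescence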
[2] = molecular target: T1, Cannabinoid receptor 1 (Homo sapiens, UniProt P21554); assay: SAR analysis of antagonists of the Cannabinoid Receptor 1 using an Image-Based Assay - Set 4. [Related pubchem assays (depositor defined):AID2013, AID2026]; format: functional
[3] = molecular target: T2, Cannabinoid receptor 2 (Homo sapiens, UniProt P34972); assay: SAR analysis of agonists of the Cannabinoid Receptor 2 using an Image-Based Assay - Set 3. [Related pubchem assays (depositor defined):AID2013, AID2026]; format: functional
[4] = molecular target: T1, Cannabinoid receptor 1; assay: SAR analysis of agonists of the Cannabinoid Receptor 1 using an Image-Based Assay - Set 4. [Related pubchem assays (depositor defined):AID2013, AID2026]; format: functional
[5] = molecular target: T2, Cannabinoid receptor 2; assay: SAR analysis of antagonists of the Cannabinoid Receptor 2 using an Image-Based Assay - Set 3. [Related pubchem assays (depositor defined):AID2013, AID2026]; format: functional
[6] = molecular target: G-protein coupled receptor 55 (Homo sapiens, UniProt Q9Y2T6); assay: SAR Analysis of Selective Antagonists of GPR55 using an Image-Based Assay - Set 4. [Related pubchem assays (depositor defined):AID2013, AID2026]; format: functional;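 note: antagonism of response to 5 µM lysophosphatidylinositol agonist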
[7] = molecular target: T3, G-protein coupled receptor 35 (Homo sapiens, UniProt Q9HC97); assay: SAR analysis of Agonists of the GPR35 Receptor using an Image-Based Assay - Set 4. [Related pubchem assays (depositor defined):AID2013, AID2026]; format: functional
[8] = molecular target: T3, G-protein coupled receptor 35; assay: SAR analysis of Antagonists of the GPR35 Receptor using an Image-Based Assay - Set 6. [Related pubchem assays (depositor defined):AID2013, AID2026]; format: functional
[9] = Luminescence Cell-Based Dose Confirmation HTS to Identify Inhibitors of 5'UTR Stem-Loop Driven Alpha-Synuclein mRNA Translation in H4 Neuroglioblastoma Cells. [Related pubchem assays: 1827 (Project Summary), 1813 (Primary HTS)]; format: functional
[10] = alpha-synuclein stem-loop luciferase translation blockers – H4 neuroglioma cells, luminescence, confirmation (AID 1988); format: functional, cell-based
[11] = Luminescence Cell-Based Dose Response HTS to Identify Inhibitors of 5'UTR Stem-Loop Driven Prion Protein mRNA Translation in H4 Neuroglioblastoma Cells. [Related pubchem assays: 1827 (Project Summary), 1813 (Primary HTS)]; format: functional
[12] = Luminescence Cell-Based Dose Response HTS to Identify Activators of 5'UTR Stem-Loop Driven Prion Protein mRNA Translation in H4-C Neuroglioblastoma Cells. [Related pubchem assays: 1829 (Project Summary), 1814 (Primary HTS)]; format: functional
[13] = Luminescence Cell-Based Dose Retest to Confirm Activators of 5'UTR Stem-Loop Driven Alpha-Synuclein mRNA Translation in H4 Neuroglioblastoma Cells. [Related pubchem assays (depositor defined):AID1813, AID1829]; format: functional
[14] = Luminescence Cell-Based Dose HTS Response to Identify Inhibitors of 5'UTR Stem-Loop Driven Prion Protein mRNA Translation in H4-C Neuroglioblastoma Cells. [Related pubchem assays (depositor defined):AID1814, AID1827]; format: functional
[15] = Luminescence Cell-Based Dose Response HTS to Identify Activators of Luciferase Translation or Activity in H4-C Neuroglioblastoma Cells. [Related pubchem assays: 1829 (Project Summary), 1814 (Primary HTS)]; format: functional
[16] = Luminescence Cell-Based Dose Response HTS to Identify Inhibitors of Luciferase Translation or Activity in H4-C Neuroglioblastoma Cells. [Related pubchem assays: 1813 (Primary HTS), 1827 (Project Summary)]; format: functional
[17] = luciferase reporter signal suppression in cells – H4 neuroglioma cells, luminescence, dose response (AID 1990); format: functional, cell-based
[18] = Trypanosoma cruzi growth suppression in host cells – NIH3T3 host cells, beta-gal luminescence, confirmation (AID 2044); format: functional, cell-based;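 note: intracellular parasites grown in NIH/3T3 mouse fibroblasts as host cells; luminescent beta-galactosidase reporter signal from transgenic T. cruzi replicating inside host cells; inhibitors lower the luminescence signal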
[19] = molecular target: DNA dC->dU-editing enzyme APOBEC-3A (Homo sapiens, UniProt P31941); assay: Dose Response confirmation of small molecule APOBEC3A DNA Deaminase Inhibitors via a fluorescence-based single-stranded DNA deaminase assay. [Related pubchem assays (depositor defined):AID493011, AID493024]; format: functional
[20] = molecular target: DNA dC->dU-editing enzyme APOBEC-3G (Homo sapiens, UniProt Q9HC16); format: functional;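 note: Dose-response counterscreen measuring inhibition of APOBEC3G DNA deaminase activity, run while confirming APOBEC3A inhibitors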
[21] = NIH3T3 cell viability loss – ATP luminescence, mouse fibroblasts, counter-screen, dose response (AID 2010); format: functional, cell-based;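 note: cells exposed to compound for about 90 hours before reading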
[22] = molecular target: T4, Tyrosine-protein phosphatase non-receptor type 7 (Homo sapiens, UniProt P35236); assay: SAR analysis of chemical inhibitors of HePTP using a Fluorescent assay - Set 2. [Related pubchem assays (depositor defined):AID1059, AID1077, AID1661, AID2085, AID521]; format: functional
T4 sequence (P35236 whole entry): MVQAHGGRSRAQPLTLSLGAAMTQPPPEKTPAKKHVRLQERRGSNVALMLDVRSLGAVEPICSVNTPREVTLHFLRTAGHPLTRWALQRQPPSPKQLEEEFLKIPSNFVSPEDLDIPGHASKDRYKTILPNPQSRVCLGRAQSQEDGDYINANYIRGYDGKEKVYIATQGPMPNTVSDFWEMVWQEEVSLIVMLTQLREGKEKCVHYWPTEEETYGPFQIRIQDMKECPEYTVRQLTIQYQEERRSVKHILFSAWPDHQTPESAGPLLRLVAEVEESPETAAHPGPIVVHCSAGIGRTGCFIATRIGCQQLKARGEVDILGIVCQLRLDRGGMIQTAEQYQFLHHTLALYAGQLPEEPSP

[23] = molecular target: Dual specificity protein phosphatase 3 (Homo sapiens, UniProt P51452); assay: SAR VHR1 Fluorescent Assay for In Vitro dose response studies Set 2. [Related pubchem assays (depositor defined):AID1654, AID1661, AID1878]; format: functional
[24] = molecular target: T5, Kappa-type opioid receptor (Homo sapiens, UniProt P41145); assay: SAR analysis of small molecule antagonists of the kappa opioid receptor via a luminescent beta-arrestin assay - Set 4. [Related pubchem assays (depositor defined):AID1777, AID1778, AID1785, AID1786, AID1966, AID2133, AID2136, AID2285]; format: functional
[25] = molecular target: T5, Kappa-type opioid receptor; assay: SAR analysis of small molecule antagonists of the kappa opioid receptor via a luminescent beta-arrestin assay - Set 5. [Related pubchem assays (depositor defined):AID1778, AID1785]; format: functional
[26] = test system: BJ; assay: cells; format: functional, cell-based; conditions: Homo sapiens
[27] = test system: CHO; assay: CHO cell viability loss, potency – luminescence, cytotoxicity control for TLR9-MyD88 binding inhibitor project, dose response (AID 588339); format: functional, cell-based, hamster; conditions: Cricetulus griseus;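 note: CHO cells stably coexpressing TLR9 and MyD88 fusions from primary screen; compound exposure lasted 48 hours before viability readout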
[28] = blockers of HIV-1 envelope-mediated cell-cell fusion – cherry-pick, dose response (AID 652057); format: functional, cell-based
[29] = off-target signal loss in HeLa-CEM21 co-culture – HeLa F-luc CTL cells, cherry-picked, counter-screen for HIV-1 Env fusion inhibitor project, dose response (AID 652040); format: functional, cell-based;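 note: potency for signal decrease marking cytotoxic or nonspecific inhibition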
[30] = molecular target: Intestinal-type alkaline phosphatase (Homo sapiens, UniProt P09923); assay: activation of human intestinal alkaline phosphatase – biochemical, dose response (AID 488873); format: functional
[31] = molecular target: NACHT, LRR and PYD domains-containing protein 3 (Homo sapiens, UniProt Q96P20); assay: NALP3 inhibitors in yeast, dose response, luminescent (AID 488799); format: functional
[32] = cells; format: functional, cell-based
[33] = molecular target: ATP-dependent molecular chaperone HSP82 (Candida albicans (strain WO-1) (Yeast), UniProt C4YTQ8); assay: steroid-induced GRE reporter decrease in yeast – S. cerevisiae, luminescence, Hsp90 inhibitor project, dose response (AID 2400); format: functional, cell-based;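 note: beta-galactosidase luminescence from glucocorticoid response element reporter as proxy for Hsp90 function; inhibitor potency where signal loss means Hsp90 inhibition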
[34] = test system: BJ; assay: BJ-TERT-LT-ST fibroblast viability loss – cell-based, RAS-independent, luminescence, dose response (AID 1935); format: functional; conditions: Homo sapiens;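 note: BJ fibroblasts immortalized with TERT plus LT and ST oncogenes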
[35] = test system: BJ; assay: growth inhibition of engineered Ras-driven BJ cells – cell-based, alamar blue fluorescence, cherrypicked samples, dose response (AID 2631); format: functional; conditions: Homo sapiens;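 note: confirmatory dose-response assay in RAS-dependent BJ fibroblasts engineered with TERT, LT and ST, with cytotoxicity read by fluorescence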
[36] = molecular target: Hepatocyte nuclear factor 4-alpha (Homo sapiens, UniProt P41235); format: functional, cell-based;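 note: biochemical luminescence-based dose-response counterscreen measuring inhibition of HNF4 dimerization, run alongside a screen for blockers of ABHD5–perilipin-5 interaction; split luciferase complementation of HNF4 fusion proteins in cell lysate measuring dimerization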
[37] = test system: BJ; assay: BJ-TERT fibroblast viability loss – cell-based, RAS-independent, luminescence, dose response (AID 1933); format: functional; conditions: Homo sapiens
[38] = test system: Streptococcus; assay: GAS UMAA2166 growth inhibition – luminescence, BacTiterGlo, counter-screen for streptokinase expression inhibitor project, dose response (AID 1915); format: functional, organism-based;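 note: potency for reduction of bacterial viability or growth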
[39] = luciferase reporter signal reduction – luminescence, H4-C neuroglioblastoma cells, dose response (AID 2458); format: functional, cell-based;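 note: H4 neuroglioblastoma cells stably carrying a luciferase reporter gene fusion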
[40] = NIH-3T3 fibroblast cytotoxicity, dose response, cytotoxicity control, cell-based, fluorescence, Alamar Blue, secondary assay (AID 2327); format: functional;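 note: NIH-3T3 mouse fibroblasts cultured with fluconazole at 8 µg/mL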
[41] = HIV-1 AD8 envelope cell-cell fusion blockers – cherry-pick, dose response (AID 652062); format: functional, cell-based;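 note: luciferase signal from cell-cell fusion driven by HIV-1 clade B AD8 Env; potency is for inhibitors of fusion seen as a drop in luminescence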
[42] = alpha-synuclein stem-loop translation blockers – luminescence, H4 neuroglioblastoma cells, dose confirmation, confirmation (AID 2454); format: functional, cell-based;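 note: H4 neuroglioblastoma cells carrying an alpha-synuclein 5'UTR luciferase reporter; potency for inhibition of the luciferase signal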
[43] = DRD fibroblast viability loss – cell-based, non-viral oncogenic, luminescence, dose response (AID 1934); format: functional; conditions: Homo sapiens
[44] = molecular target: Serine/threonine-protein phosphatase (Candida dubliniensis (strain CD36 / CBS 7987 / NCPF 3949 / NRRLY-17841) (Yeast), UniProt B9W6M3); assay: blockers of CaCl2-induced CDRE-lacZ signaling – S. cerevisiae, luminescence, secondary, dose response (AID 2388); format: functional, cell-based;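 note: yeast reporter cells carrying a calcineurin-responsive lacZ construct stimulated with calcium chloride; luminescent beta-galactosidase reporter signal in whole cells rather than isolated phosphatase activity; potency for inhibition where a drop in reporter signal means calcineurin blockade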
[45] = molecular target: Beta Lactamase (Pseudomonas aeruginosa, UniProt Q932Y6); assay: BLA reporter interference, concentration series – BLA reporter cells, FRET fluorescence, artefact control for TLR9-MyD88 binding inhibitor project, dose response (AID 588341); format: cell-based;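 note: cell based assay in CHO-K1 cells stably expressing beta-lactamase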
[46] = molecular target: Intestinal-type alkaline phosphatase (Mus musculus, UniProt P24822); assay: mouse intestinal alkaline phosphatase activators, dose response, biochemical, luminescence, uHTS hits (AID 488783); format: functional
[47] = molecular target: Alkaline phosphatase, placental type (Homo sapiens, UniProt P05187); assay: human placental alkaline phosphatase inhibition – biochemical, luminescence, confirmation (AID 1512); format: functional
[48] = blockers of HIV-1 ZM109 envelope-driven cell-cell fusion – HeLa effector, CEM target cells, luciferase, cherry-pick, dose response (AID 652058); format: functional, cell-based;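 note: luciferase signal from HIV-1 Env mediated cell-cell fusion of effector and target cells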
[49] = microbe, parasite or virus in culture; format: functional; conditions: Mycobacterium tuberculosis
[50] = test system: Streptococcus sp. 'group A'; assay: Streptococcus pyogenes SK(-)GAS viability under kanamycin – luminescence, BacTiterGlo, confirmation, counter-screen for streptokinase expression inhibitor project, dose response (AID 1900); format: functional, organism-based
[51] = viability loss in CEM21 cells – cell-based, CellTiter-Glo luminescence, cherry-picked, cytotoxicity control for viral fusion inhibitor project, dose response (AID 652042); format: functional;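 note: potency for signal decrease meaning cytotoxicity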
[52] = fluconazole-exposed Candida albicans growth modulators – fluorescence, retest, confirmation (AID 2467); format: functional, cell-based
[53] = test system: INS1; assay: INS-1E survival protection against cytokine death – cell-based, luminescence, retest, dose response (AID 449756); format: functional; conditions: Rattus norvegicus;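 note: cell death triggered by IL-1 beta plus TNF-alpha plus IFN-gamma mixture; protective hits raise ATP signal compared with cytokine alone wells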

T3 sequence (Q9HC97 whole entry): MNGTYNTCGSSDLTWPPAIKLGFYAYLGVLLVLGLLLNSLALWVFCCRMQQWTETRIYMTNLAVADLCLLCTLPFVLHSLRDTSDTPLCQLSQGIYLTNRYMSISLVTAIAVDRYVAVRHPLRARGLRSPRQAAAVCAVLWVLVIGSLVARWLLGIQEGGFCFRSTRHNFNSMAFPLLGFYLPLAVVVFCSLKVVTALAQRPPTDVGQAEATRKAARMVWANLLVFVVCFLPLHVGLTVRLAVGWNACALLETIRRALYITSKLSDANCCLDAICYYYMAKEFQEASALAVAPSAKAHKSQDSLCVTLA
T1 sequence (P21554 whole entry): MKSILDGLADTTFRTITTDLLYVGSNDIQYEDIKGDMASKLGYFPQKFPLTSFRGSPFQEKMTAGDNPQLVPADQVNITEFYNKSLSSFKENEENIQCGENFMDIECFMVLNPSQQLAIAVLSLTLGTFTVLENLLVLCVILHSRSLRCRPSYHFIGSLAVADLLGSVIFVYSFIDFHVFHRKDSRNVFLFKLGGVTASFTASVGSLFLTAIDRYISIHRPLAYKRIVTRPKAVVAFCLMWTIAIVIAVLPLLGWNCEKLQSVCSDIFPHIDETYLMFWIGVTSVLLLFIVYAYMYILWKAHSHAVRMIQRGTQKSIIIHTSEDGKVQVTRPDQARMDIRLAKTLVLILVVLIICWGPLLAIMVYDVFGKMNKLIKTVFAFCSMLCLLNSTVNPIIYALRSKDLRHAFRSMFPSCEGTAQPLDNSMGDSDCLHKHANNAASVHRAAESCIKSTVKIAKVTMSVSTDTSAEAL
T2 sequence (P34972 whole entry): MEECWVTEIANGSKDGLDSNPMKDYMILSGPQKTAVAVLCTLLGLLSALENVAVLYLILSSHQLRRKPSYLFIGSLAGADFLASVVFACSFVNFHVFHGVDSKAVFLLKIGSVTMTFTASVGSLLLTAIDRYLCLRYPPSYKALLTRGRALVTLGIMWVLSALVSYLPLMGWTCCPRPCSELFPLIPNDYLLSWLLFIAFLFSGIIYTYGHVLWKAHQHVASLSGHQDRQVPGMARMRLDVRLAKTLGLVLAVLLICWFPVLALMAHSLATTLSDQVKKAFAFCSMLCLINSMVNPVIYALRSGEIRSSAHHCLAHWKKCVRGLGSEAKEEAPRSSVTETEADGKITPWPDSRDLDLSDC
T5 sequence (P41145 whole entry): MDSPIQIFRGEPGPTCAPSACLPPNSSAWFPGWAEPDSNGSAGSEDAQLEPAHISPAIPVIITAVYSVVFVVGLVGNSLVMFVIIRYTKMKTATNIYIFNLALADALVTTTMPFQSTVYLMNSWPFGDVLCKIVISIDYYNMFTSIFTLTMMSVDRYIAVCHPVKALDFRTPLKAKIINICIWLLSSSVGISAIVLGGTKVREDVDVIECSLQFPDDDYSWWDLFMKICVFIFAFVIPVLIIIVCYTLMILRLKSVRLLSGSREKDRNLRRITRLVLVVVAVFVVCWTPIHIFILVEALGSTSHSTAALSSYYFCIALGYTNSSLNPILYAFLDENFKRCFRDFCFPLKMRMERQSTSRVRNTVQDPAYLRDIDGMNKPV
Sequence of G-protein coupled receptor 55 (Q9Y2T6 whole entry): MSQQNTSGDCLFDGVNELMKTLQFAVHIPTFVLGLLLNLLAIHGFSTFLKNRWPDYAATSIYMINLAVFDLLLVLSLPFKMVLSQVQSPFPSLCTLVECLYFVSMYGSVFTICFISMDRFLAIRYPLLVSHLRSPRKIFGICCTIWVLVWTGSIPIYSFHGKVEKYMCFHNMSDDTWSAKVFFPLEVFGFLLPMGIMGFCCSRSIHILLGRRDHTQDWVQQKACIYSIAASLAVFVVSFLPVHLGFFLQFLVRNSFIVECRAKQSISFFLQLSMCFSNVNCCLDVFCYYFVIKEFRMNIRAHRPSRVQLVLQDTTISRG
Sequence of NACHT, LRR and PYD domains-containing protein 3 (Q96P20 whole entry, the tested form may be a part): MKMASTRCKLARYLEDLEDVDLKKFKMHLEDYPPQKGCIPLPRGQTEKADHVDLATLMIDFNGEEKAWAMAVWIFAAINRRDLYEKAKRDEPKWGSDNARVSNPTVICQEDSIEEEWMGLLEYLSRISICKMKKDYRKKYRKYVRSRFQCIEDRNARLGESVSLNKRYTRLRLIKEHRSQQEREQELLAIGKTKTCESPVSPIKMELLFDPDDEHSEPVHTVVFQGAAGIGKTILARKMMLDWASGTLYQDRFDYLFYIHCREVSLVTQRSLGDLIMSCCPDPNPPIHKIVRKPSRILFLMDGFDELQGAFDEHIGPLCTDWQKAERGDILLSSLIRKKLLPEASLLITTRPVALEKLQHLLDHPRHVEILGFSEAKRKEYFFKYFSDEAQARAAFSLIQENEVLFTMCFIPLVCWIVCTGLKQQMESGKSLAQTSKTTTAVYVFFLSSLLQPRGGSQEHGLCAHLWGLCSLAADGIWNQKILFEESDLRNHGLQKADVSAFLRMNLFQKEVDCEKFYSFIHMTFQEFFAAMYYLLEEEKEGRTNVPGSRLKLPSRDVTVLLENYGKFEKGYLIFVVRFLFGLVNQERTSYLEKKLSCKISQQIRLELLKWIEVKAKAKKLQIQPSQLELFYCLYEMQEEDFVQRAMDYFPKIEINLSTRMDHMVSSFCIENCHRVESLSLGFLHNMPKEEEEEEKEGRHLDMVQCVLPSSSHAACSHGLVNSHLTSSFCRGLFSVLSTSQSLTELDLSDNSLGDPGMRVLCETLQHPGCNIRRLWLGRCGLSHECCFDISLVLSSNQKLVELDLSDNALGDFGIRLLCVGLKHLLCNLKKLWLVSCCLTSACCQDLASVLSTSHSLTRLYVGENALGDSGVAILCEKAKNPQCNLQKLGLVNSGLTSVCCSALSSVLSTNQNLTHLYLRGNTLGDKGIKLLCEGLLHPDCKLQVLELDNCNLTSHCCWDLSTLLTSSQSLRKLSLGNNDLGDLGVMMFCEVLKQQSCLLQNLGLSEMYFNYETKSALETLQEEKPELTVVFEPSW
Sequence of Intestinal-type alkaline phosphatase (Homo sapiens, UniProt P09923) (P09923 whole entry, the tested form may be a part): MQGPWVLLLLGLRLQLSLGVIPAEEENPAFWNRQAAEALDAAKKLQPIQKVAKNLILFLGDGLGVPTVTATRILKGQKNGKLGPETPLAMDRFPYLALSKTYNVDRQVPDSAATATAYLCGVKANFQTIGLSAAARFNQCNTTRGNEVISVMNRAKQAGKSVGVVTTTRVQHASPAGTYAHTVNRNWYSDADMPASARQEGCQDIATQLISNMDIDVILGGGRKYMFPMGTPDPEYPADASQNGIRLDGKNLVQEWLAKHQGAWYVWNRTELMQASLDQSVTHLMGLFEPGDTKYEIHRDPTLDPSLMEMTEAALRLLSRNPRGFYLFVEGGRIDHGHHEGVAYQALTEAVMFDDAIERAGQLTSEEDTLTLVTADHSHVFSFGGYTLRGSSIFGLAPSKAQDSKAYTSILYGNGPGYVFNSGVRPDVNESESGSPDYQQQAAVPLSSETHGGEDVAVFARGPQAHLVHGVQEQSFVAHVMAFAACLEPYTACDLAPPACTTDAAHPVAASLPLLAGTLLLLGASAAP
Sequence of Beta Lactamase (Q932Y6 whole entry): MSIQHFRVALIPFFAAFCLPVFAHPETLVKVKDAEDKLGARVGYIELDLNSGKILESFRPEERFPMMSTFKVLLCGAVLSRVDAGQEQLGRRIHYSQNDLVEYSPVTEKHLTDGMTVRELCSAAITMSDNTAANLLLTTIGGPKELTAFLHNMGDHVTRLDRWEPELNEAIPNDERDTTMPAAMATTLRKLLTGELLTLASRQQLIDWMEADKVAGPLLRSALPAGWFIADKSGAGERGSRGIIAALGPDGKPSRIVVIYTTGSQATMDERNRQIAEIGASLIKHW
Sequence of Alkaline phosphatase, placental type (P05187 whole entry, the tested form may be a part): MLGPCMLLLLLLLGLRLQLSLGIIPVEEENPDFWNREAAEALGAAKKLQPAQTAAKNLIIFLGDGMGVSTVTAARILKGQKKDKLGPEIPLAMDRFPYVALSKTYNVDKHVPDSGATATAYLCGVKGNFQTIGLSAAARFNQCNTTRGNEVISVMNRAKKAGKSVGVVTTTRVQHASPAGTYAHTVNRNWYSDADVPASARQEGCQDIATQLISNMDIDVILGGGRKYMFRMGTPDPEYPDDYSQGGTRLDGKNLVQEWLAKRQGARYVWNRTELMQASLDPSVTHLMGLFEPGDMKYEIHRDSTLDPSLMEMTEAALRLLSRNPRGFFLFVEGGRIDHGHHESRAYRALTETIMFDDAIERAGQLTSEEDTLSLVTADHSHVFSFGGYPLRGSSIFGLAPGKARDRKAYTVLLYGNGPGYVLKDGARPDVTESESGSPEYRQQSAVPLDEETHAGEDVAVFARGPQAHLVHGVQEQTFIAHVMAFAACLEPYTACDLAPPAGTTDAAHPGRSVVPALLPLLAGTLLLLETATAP
Sequence of Hepatocyte nuclear factor 4-alpha (P41235 whole entry, the tested form may be a part): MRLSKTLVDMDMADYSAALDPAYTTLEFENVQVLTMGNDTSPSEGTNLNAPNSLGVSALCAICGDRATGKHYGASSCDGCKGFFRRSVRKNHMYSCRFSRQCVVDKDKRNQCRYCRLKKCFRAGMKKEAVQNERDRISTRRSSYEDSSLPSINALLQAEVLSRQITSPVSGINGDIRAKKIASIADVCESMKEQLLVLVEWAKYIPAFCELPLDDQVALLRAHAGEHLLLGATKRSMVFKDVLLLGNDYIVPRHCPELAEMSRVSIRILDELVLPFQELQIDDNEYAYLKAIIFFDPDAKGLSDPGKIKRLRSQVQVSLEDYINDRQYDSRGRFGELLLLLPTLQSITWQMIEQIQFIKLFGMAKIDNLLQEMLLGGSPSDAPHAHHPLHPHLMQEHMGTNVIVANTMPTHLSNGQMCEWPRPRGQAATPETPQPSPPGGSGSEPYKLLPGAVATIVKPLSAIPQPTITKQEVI
Sequence of Dual specificity protein phosphatase 3 (P51452 whole entry): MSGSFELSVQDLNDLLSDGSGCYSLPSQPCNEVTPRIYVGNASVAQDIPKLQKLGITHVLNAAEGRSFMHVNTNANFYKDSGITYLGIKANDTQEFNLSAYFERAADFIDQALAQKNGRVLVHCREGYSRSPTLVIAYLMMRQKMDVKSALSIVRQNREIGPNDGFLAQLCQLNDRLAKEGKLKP

CCN(CC)CCNC(=O)c1ccc(NC(=O)c2cc(-c3ccco3)nc3ccccc23)cc1
inactive: EC50 [1] > 100 µM

CCN(CC)S(=O)(=O)c1ccc(NC(=O)c2cc(-c3cccs3)nc3ccccc23)cc1
inactive: EC50 [3] > 32 µM | EC50 [4] > 32 µM | IC50 [5] > 32 µM | IC50 [6] > 32 µM | EC50 [7] > 32 µM | IC50 [8] > 32 µM
active: IC50 [2] 0.427 µM

COc1ccc(N(CC(=O)Nc2cc(Cl)ccc2OC)S(=O)(=O)c2c(C)noc2C)cc1
inconclusive: EC50 [12] 3.56 µM | EC50 [13] 21.5 µM | EC50 [15] 4.39 µM
> 120 µM (not active): EC50 [17]
active: EC50 [9] 21.5 µM | EC50 [10] 5.82 µM | EC50 [11] 106 µM | EC50 [14] 3.56 µM | EC50 [16] 4.39 µM

CCN1CCN(c2ccc(S(=O)(=O)N3CCCCC3)cc2NC(=O)COc2ccc(F)cc2Cl)CC1
> 60 µM (not active): EC50 [21]
active: EC50 [18] 0.474 µM | IC50 [19] 3.24 µM | IC50 [20] 5.24 µM

COc1cc(C(=S)NCc2cccc(F)c2)ccc1O
active: IC50 [22] 23.4 µM | IC50 [23] 32.8 µM

COc1ccc(CN(CCNC(=O)c2cccc(CNS(=O)(=O)c3ccc(C)cc3)c2)C(C)C)cc1
active: IC50 [25] 9.03 µM
inactive: IC50 [24] > 20 µM

CCN1/C(=C/C=C/c2oc3ccc(-c4ccccc4)cc3[n+]2CC)Oc2ccc(-c3ccccc3)cc21
inactive: IC50 [45] 10.7 µM | IC50 [47] > 100 µM
active: EC50 [10] < 0.1 µM | IC50 [27] 1.45 µM | EC50 [11] < 0.1 µM | AC50 [28] 1.15 µM | AC50 [29] 6.77 µM | EC50 [30] 24.2 µM | IC50 [31] 9.07 µM | EC50 [32] 0.863 µM | EC50 [33] 23.6 µM | EC50 [35] < 0.104 µM | IC50 [36] 3.88 µM | EC50 [38] 3.89 µM | EC50 [39] 0.696 µM | AC50 [41] 2.55 µM | EC50 [42] 0.659 µM | EC50 [44] 104 µM | EC50 [46] 22.2 µM | AC50 [48] 3.77 µM | EC50 [17] < 0.1 µM | CC50 [49] 1.56 µM | EC50 [50] 1.5 µM | AC50 [51] 1.59 µM | EC50 [52] 0.976 µM | AC50 [53] 0.23 µM
inconclusive: EC50 [26] 1.32 µM | EC50 [34] 3.42 µM | EC50 [37] 1.63 µM | EC50 [40] 3.16 µM | EC50 [43] 1.04 µM
